According to patent US12226403B2 (SPERO THERAPEUTICS, INC., priority 2016, dated 2025):

Tests used:
[1] = Previously generated IV data; details: in vivo, 10 mg/kg dose
Source text: Cmax was reduced with the modified release formulation compared to the immediate release (free base and HBr) formulation but AUCall was relatively constant between the formulations. AUCinf could not be calculated due to the variability in the terminal elimination profile. […] Mean residence time was increased in the extended release formulation.

[2] = PK parameters for oral administration to monkeys; format: in vivo; details: cynomolgus monkey, plasma, 100 mg; oral tablets vs previously generated IV data, estimated; read-out: bioavailability of tebipenem
Protocol: Each animal received a one week wash out prior to the next dose and each served as its own control. Blood samples were collected into K2EDTA tubes before processing to plasma. Samples were obtained at 15 minutes, 30 minutes, 1 hours, 2 hours, 4 hours, 6 hours, 8 hours, 10 hours, 12 hours, 16 hours, and 24 hours post administration. […] Non-compartmental analysis used to derive pharmacokinetic parameters of the composite time vs. concentration profiles were performed for each dose level using Phoenix Winnonlin v. 6.4. Plasma concentration of tebipenem for each time point was determined by HPLC.

AUC [1]: 13100 ng·h/mL
bioavailability [2]: 39 to 50%
SMILES: C[C@@H](O)[C@H]1C(=O)N2C(C(=O)O)=C(SC3CN(C4=NCCS4)C3)[C@H](C)[C@H]12 [tebipenem]
